Data taken from patent publication US20070015827A1, “Methods and compositions for treating ophthalmic conditions via serum retinol, serum retinol binding protein (RBP), and/or serum retinol-RBP modulation” (Sytera, Inc., priority 2005, published 2007).

What was measured:
abca4 null mutant mouse = assay: Effect of HPR on serum retinol, 14 days (Example 11); type: in vivo
Method: Initial studies began by examining the effect of HPR on serum retinol. Animals were divided into three groups and given either DMSO, 10 mg/kg HPR, or 20 mg/kg HPR for 14 days. At the end of the study period, blood was collected from the animals, sera were prepared and an acetonitrile extract of the serum was analyzed by reverse phase LC/MS. UV-visible spectral and mass/charge analyses were performed to confirm the identity of the eluted peaks. Sample chromatograms obtained from these analyses are shown: FIG. 1a.—extract from an abca4 null mutant mouse receiving HPR vehicle, DMSO; FIG. 1b.-10 mg/kg HPR; FIG. 1c.-20 mg/kg HPR. […] For 20 mg/kg HPR, serum retinol is decreased 72%, see FIG. 7. The steady state concentrations of retinol and HPR in serum (at 20 mg/kg HPR) were determined to be 2.11 μM and 1.75 μM, respectively.

abca4 −/− mice = assay: A2E levels after withdrawal of chronic treatment; type: in vivo, mouse; details: chronic treatment (HPR 10 mg/kg i.p.) stopped after 28 days; measured 12, 28 and 42 days later
Method: Latent Effects of HPR on Arresting A2E Accumulation —One feature identified during the HPR trials was a therapeutic latency effect following withdrawal of HPR. In these studies, chronic treatment of abca4 −/− mice (10 mg HPR/kg, i.p.) was stopped after 28 days. A2E levels were then measured 12, 28 and 42 days following the final HPR dose. […] This effect was not observed in animals treated with 13-cis retinoic acid, a result that may be due to the capacity of RPE cells to adapt to, and maintain, low steady-state retinoid levels. […] These findings indicate that high steady-state levels of competitive inhibitors such as 13-cis retinoic acid must be maintained for therapeutic efficacy.

[1] = biological target: interaction of TTR with RBP (Homo sapiens, UniProt P02753); details: in vitro; cited from earlier work
abca4 null mutant mice = assay: Serum retinol after 28 days of daily HPR (LC/MS, HPLC); type: in vivo, mouse; details: for effect on serum retinol (in words): ABCA4 null mice
Method: ABCA4 null mutant mice were given the indicated dose of HPR in DMSO (i.p.) daily for 28 days (n=4 mice per dosage group). At the end of the study period, blood samples were taken and serum was prepared. Following acetonitrile precipitation of serum proteins, the concentrations of retinol and HPR were determined from the soluble phase by LC/MS (see FIG. 7). Identity of the eluted compounds was confirmed by UV-vis absorption spectroscopy and co-elution of sample peaks with authentic standards.
Analysis of Serum Retinol. Whole blood was collected from tail veins of HPR-treated mice 18 hrs. following the final HPR dose (i.e., at day 28). Serum was obtained from whole blood following centrifugation at 1,500×g, 10 min. Serum proteins were precipitated with the addition of an equivolume of ice-cold acetonitrile and centrifugation (10,000×g, 10 min). An aliquot was removed from the soluble phase and analyzed by HPLC using an Agilent 1100 series capillary liquid chromatograph equipped with a diode-array detector. Chromatography was performed on a Zorbax SB C18 5 μm column (150×0.5 mm) equilibrated with acetonitrile/water/glacial acetic acid (80:18:2, v/v) at a flow rate of 10 μl/min.

CC1=C(/C=C/C(C)=C/C=C/C(C)=C/C(=O)Nc2ccc(O)cc2)C(C)(C)CCC1 [HPR, N-(4-hydroxyphenyl)retinamide]
decrease of serum all-trans retinol (abca4 null mutant mouse; 10 mg/kg HPR, 14 days, vs DMSO): 40% | decrease of serum retinol (abca4 null mutant mouse; 20 mg/kg HPR, 14 days, vs DMSO): 72% | steady state concentration of retinol in serum (abca4 null mutant mouse; at 20 mg/kg HPR): 2.11 µM | A2E levels after withdrawal (therapeutic latency effect) (abca4 −/− mice): remained persistently low for several weeks | effect on interaction of TTR with RBP [1]: interferes with the normal interaction of TTR with RBP | effect on serum retinol (in words) (abca4 null mutant mice): profound reductions | effect on serum retinol (in words) (abca4 null mutant mice; listed as Fenretinide): potently and reversibly reduces | effect on serum retinol (in words) (abca4 null mutant mice; listed as fenretinide): lowered serum retinol levels | serum retinol reduction (abca4 null mutant mice; HPR 2.5 mg/kg daily, 28 days): 20% | reduction of RBP-retinol in the circulation (abca4 null mutant mice; HPR 10 mg/kg daily, 28 days): ~50%
